Measurements reported in patent US11051515B2, “3-acyl-benzamides and their use as herbicides” (Bayer Aktiengesellschaft, priority 2017, dated 2021).

How the values were obtained:
VERPE [1] = test: Pre-emergence action against VERPE; assay type: in vivo, Veronica persica; settings: Dosage 320 g/ha, pre-emergence
In short: (§1)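 Seeds sown in sandy loam in wood-fiber pots and covered with soil. Greenhouse growth; visual damage scored after 3 weeks versus untreated controls (100% = dead, 0% = like control).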

SETVI = test: Pre-emergence action against SETVI; assay type: in vivo, Setaria viridis; settings: pre-emergence, dosage 320 g/ha, scored visually after 3 weeks vs untreated controls
In short: as §1

POLCO [2] = test: Pre-emergence action against POLCO; assay type: in vivo, Polygonum convolvulus; settings: Fallopia convolvulus, 504 h; Dosage 320 g/ha, pre-emergence
In short: as §1

VIOTR [3] = test: Pre-emergence action against VIOTR; assay type: in vivo, Viola tricolor; settings: Dosage 320 g/ha, pre-emergence
In short: as §1

AMARE [4] = test: Post-emergence action against AMARE; assay type: in vivo, Amaranthus retroflexus; settings: post-emergence, dosage 80 g/ha, visual assessment about 3 weeks after treatment vs untreated controls
In short: (§2)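 Weeds grown in sandy loam in greenhouse, treated at one-leaf stage (2–3 weeks after sowing) with WP or EC formulations sprayed as aqueous suspension/emulsion at 600 to […] water with 0.2% wetting agent. Visual rating after about 3 weeks versus untreated controls, as % herbicidal action (100% = plants dead, 0% = like control).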

VERPE [5] = test: Post-emergence action against VERPE; assay type: in vivo, Veronica persica; settings: dosage 80 g/ha
In short: as §2

STEME [6] = test: Post-emergence action against STEME; assay type: in vivo, Stellaria media; settings: post-emergence, dosage 80 g/ha
In short: as §2

ABUTH [7] = test: Pre-emergence action against ABUTH; assay type: in vivo, Abutilon theophrasti; settings: pre-emergence, dosage 320 g/ha, scored visually after 3 weeks vs untreated controls
In short: as §1

PHBPU [8] = test: Pre-emergence action against PHBPU; assay type: in vivo, Pharbitis purpurea; settings: Dosage 320 g/ha, pre-emergence
In short: as §1

DIGSA = test: Pre-emergence action against DIGSA; assay type: in vivo, Digitaria sanguinalis; settings: dosage 320 g/ha, scored visually after 3 weeks vs untreated controls
Description: (§3) Seeds of monocotyledonous and dicotyledonous weed plants and crop plants are laid out in sandy loam soil in wood-fiber pots and covered with soil. The compounds of the invention, formulated in the form of wettable powders (WP) or as emulsion concentrates (EC), are then applied to the surface of the covering soil in the form of an aqueous suspension or emulsion at a water application rate equating to […], with addition of 0.2% wetting agent. After the treatment, the pots are placed in a greenhouse and kept under good growth conditions for the trial plants. The damage to the test plants is scored visually after a test period of 3 weeks by comparison with untreated controls (herbicidal activity in percent (%): 100% activity=the plants have died, 0% activity=like control plants).

ECHCG [9] = test: Pre-emergence action against ECHCG; assay type: in vivo, Echinochloa crus-galli; settings: pre-emergence, dosage 320 g/ha, scored visually after 3 weeks vs untreated controls
In short: as §1

MATIN [10] = test: Post-emergence action against MATIN; assay type: in vivo, Matricaria inodora; settings: post-emergence, dosage 80 g/ha, visual assessment about 3 weeks after treatment vs untreated controls
In short: as §2

ALOMY = test: Pre-emergence action against ALOMY; assay type: in vivo, Alopecurus myosuroides; settings: dosage 320 g/ha, pre-emergence, scored visually after 3 weeks vs untreated controls, 100% = plants have died, 0% = like control plants
In short: as §1

STEME [11] = test: Pre-emergence action against STEME; assay type: in vivo, Stellaria media; settings: Dosage 320 g/ha, pre-emergence
In short: as §1

MATIN [12] = test: Pre-emergence action against MATIN; assay type: in vivo, Matricaria inodora; settings: Dosage 320 g/ha, pre-emergence
In short: as §1

PHBPU [13] = test: Post-emergence action against PHBPU; assay type: in vivo, Pharbitis purpurea; settings: post-emergence, dosage 80 g/ha
In short: as §2

AMARE [14] = test: Pre-emergence action against AMARE; assay type: in vivo, Amaranthus retroflexus; settings: pre-emergence, dosage 320 g/ha, scored visually after 3 weeks vs untreated controls
In short: as §1

ABUTH [15] = test: Post-emergence action against ABUTH; assay type: in vivo, Abutilon theophrasti; settings: post-emergence, dosage 80 g/ha, visual assessment about 3 weeks after treatment vs untreated controls
In short: as §2

LOLRI = test: Pre-emergence action against LOLRI; assay type: in vivo, Lolium rigidum; settings: dosage 320 g/ha, scored visually after 3 weeks vs untreated controls
In short: as §1

AVEFA [16] = test: Pre-emergence action against AVEFA; assay type: in vivo, Avena fatua; settings: dosage 320 g/ha, scored visually after 3 weeks vs untreated controls
In short: as §1

ECHCG [17] = test: Post-emergence action against ECHCG; assay type: in vivo, Echinochloa crus-galli; settings: post-emergence, dosage 80 g/ha, visual assessment about 3 weeks after treatment vs untreated controls
In short: as §2

VIOTR [18] = test: Post-emergence action against VIOTR; assay type: in vivo, Viola tricolor; settings: post-emergence, dosage 80 g/ha
In short: as §2

AVEFA [19] = test: Post-emergence action against AVEFA; assay type: in vivo, Avena fatua; settings: post-emergence, dosage 80 g/ha, visual assessment about 3 weeks after treatment vs untreated controls
In short: as §2

LOLMU = test: Pre-emergence action against LOLMU; assay type: in vivo, Lolium multiflorum; settings: dosage 320 g/ha, scored visually after 3 weeks vs untreated controls
Description: as §3

CYPES [20] = test: Post-emergence action against CYPES; assay type: in vivo, Cyperus esculentus; settings: post-emergence, dosage 80 g/ha, visual assessment about 3 weeks after treatment vs untreated controls
In short: as §2

CYPES [21] = test: Pre-emergence action against CYPES; assay type: in vivo, Cyperus esculentus; settings: pre-emergence, dosage 320 g/ha, scored visually after 3 weeks vs untreated controls
In short: as §1

POLCO [22] = test: Post-emergence action against POLCO; assay type: in vivo, Polygonum convolvulus; settings: post-emergence, dosage 80 g/ha
In short: as §2

## Cc1ccc(C(=O)Nc2nnnn2C)c(C)c1C(=O)C1CC1 [1-3]
VERPE [1]; Veronica persica, 504 h
  pest or weed control at 320 g/ha: 90%
SETVI; Setaria viridis, 504 h, read-out: SETVI (Table B8, pre-emergence herbicidal activity)
  pest or weed control at 320 g/ha: 90%
POLCO [2]
  pest or weed control at 320 g/ha: 80%
VIOTR [3]; Viola tricolor, 504 h
  pest or weed control at 320 g/ha: 90%
AMARE [4]; Amaranthus retroflexus, 504 h, read-out: Post-emergence action against AMARE (herbicidal action in percent)
  pest or weed control at 80 g/ha: 100%
VERPE [5]; Veronica persica, 504 h
  pest or weed control at 80 g/ha: 90%
STEME [6]; Stellaria media, 504 h
  pest or weed control at 80 g/ha: 90%
ABUTH [7]; Abutilon theophrasti, 504 h, read-out: Pre-emergence action against ABUTH (herbicidal activity)
  pest or weed control at 320 g/ha: 90%
PHBPU [8]; Ipomoea purpurea, 504 h
  pest or weed control at 320 g/ha: 80%
DIGSA
  Pre-emergence action against DIGSA (herbicidal activity): 90%
ECHCG [9]; Echinochloa crus-galli, 504 h, read-out: Pre-emergence action against ECHCG (herbicidal activity)
  pest or weed control at 320 g/ha: 90%
MATIN [10]; Tripleurospermum inodorum, 504 h, read-out: Post-emergence action against MATIN (herbicidal action in percent)
  pest or weed control at 80 g/ha: 90%
ALOMY; Alopecurus myosuroides, 504 h, read-out: Pre-emergence action against ALOMY (herbicidal activity in percent)
  pest or weed control at 320 g/ha: 90%
STEME [11]; Stellaria media, 504 h
  pest or weed control at 320 g/ha: 90%
MATIN [12]; Tripleurospermum inodorum, 504 h
  pest or weed control at 320 g/ha: 100%
PHBPU [13]; Ipomoea purpurea, 504 h
  pest or weed control at 80 g/ha: 90%
AMARE [14]; Amaranthus retroflexus, 504 h, read-out: Pre-emergence action against AMARE (herbicidal activity)
  pest or weed control at 320 g/ha: 100%
ABUTH [15]; Abutilon theophrasti, 504 h, read-out: Post-emergence action against ABUTH (herbicidal action in percent)
  pest or weed control at 80 g/ha: 100%

## CSc1c(C(=O)Nc2nnnn2C)ccc(C(F)(F)F)c1C(=O)C1CCCC1 [1-285]
VERPE [1]
  Pre-emergence action against VERPE: 90%
VIOTR [3]
  Pre-emergence action against VIOTR: 100%
AMARE [4]
  Post-emergence action against AMARE (herbicidal action in percent): 90%
STEME [6]
  Post-emergence action against STEME: 80
ABUTH [7]
  Pre-emergence action against ABUTH (herbicidal activity): 100%
LOLRI
  Pre-emergence action against LOLRI (herbicidal activity): 80%
DIGSA
  Pre-emergence action against DIGSA (herbicidal activity): 90%
ECHCG [9]
  Pre-emergence action against ECHCG (herbicidal activity): 80%
STEME [11]
  Pre-emergence action against STEME: 100%
MATIN [12]
  Pre-emergence action against MATIN: 100%
PHBPU [13]
  Post-emergence action against PHBPU: 80
AMARE [14]
  Pre-emergence action against AMARE (herbicidal activity): 100%
AVEFA [16]
  Pre-emergence action against AVEFA (herbicidal activity): 80%
ABUTH [15]
  Post-emergence action against ABUTH (herbicidal action in percent): 90%

## CSc1c(C(=O)Nc2nnnn2C)ccc(C(F)(F)F)c1C(=O)C1CCCCC1 [1-286]
VERPE [1]
  Pre-emergence action against VERPE: 90%
VIOTR [3]
  Pre-emergence action against VIOTR: 100%
AMARE [4]
  Post-emergence action against AMARE (herbicidal action in percent): 90%
STEME [6]
  Post-emergence action against STEME: 90
ABUTH [7]
  Pre-emergence action against ABUTH (herbicidal activity): 100%
DIGSA
  Pre-emergence action against DIGSA (herbicidal activity): 100%
STEME [11]
  Pre-emergence action against STEME: 90%
MATIN [12]
  Pre-emergence action against MATIN: 90%
AMARE [14]
  Pre-emergence action against AMARE (herbicidal activity): 100%
AVEFA [16]
  Pre-emergence action against AVEFA (herbicidal activity): 90%
ABUTH [15]
  Post-emergence action against ABUTH (herbicidal action in percent): 90%

## Cn1nnnc1NC(=O)c1ccc(C(F)(F)F)c(C(=O)c2cc(F)cc(F)c2)c1Cl [1-287]
VERPE [1]
  Pre-emergence action against VERPE: 100%
VIOTR [3]
  Pre-emergence action against VIOTR: 100%
AMARE [4]
  Post-emergence action against AMARE (herbicidal action in percent): 90%
ECHCG [17]
  Post-emergence action against ECHCG (herbicidal action in percent): 90%
ABUTH [7]
  Pre-emergence action against ABUTH (herbicidal activity): 100%
VIOTR [18]
  Post-emergence action against VIOTR: 90
DIGSA
  Pre-emergence action against DIGSA (herbicidal activity): 80%
ECHCG [9]
  Pre-emergence action against ECHCG (herbicidal activity): 80%
AVEFA [19]
  Post-emergence action against AVEFA (herbicidal action in percent): 80%
PHBPU [13]
  Post-emergence action against PHBPU: 90
AMARE [14]
  Pre-emergence action against AMARE (herbicidal activity): 100%
ABUTH [15]
  Post-emergence action against ABUTH (herbicidal action in percent): 80%

## CCn1nnnc1NC(=O)c1ccc(Cl)c(C(C)=O)c1Cl [2-114]
LOLMU
  Pre-emergence action against LOLMU (herbicidal activity): 80%
VERPE [1]
  Pre-emergence action against VERPE: 90%
SETVI
  SETVI (Table B8, pre-emergence herbicidal activity): 90%
VIOTR [3]
  Pre-emergence action against VIOTR: 100%
AMARE [4]
  Post-emergence action against AMARE (herbicidal action in percent): 100%
ECHCG [17]
  Post-emergence action against ECHCG (herbicidal action in percent): 90%
VERPE [5]
  Post-emergence action against VERPE: 80
STEME [6]
  Post-emergence action against STEME: 100
ABUTH [7]
  Pre-emergence action against ABUTH (herbicidal activity): 100%
VIOTR [18]
  Post-emergence action against VIOTR: 100
CYPES [20]
  Post-emergence action against CYPES (herbicidal action in percent): 90%
ECHCG [9]
  Pre-emergence action against ECHCG (herbicidal activity): 100%
MATIN [10]
  Post-emergence action against MATIN (herbicidal action in percent): 80%
ALOMY
  Pre-emergence action against ALOMY (herbicidal activity in percent): 80%
STEME [11]
  Pre-emergence action against STEME: 90%
MATIN [12]
  Pre-emergence action against MATIN: 90%
CYPES [21]
  Pre-emergence action against CYPES (herbicidal activity): 90%
PHBPU [13]
  Post-emergence action against PHBPU: 90
AMARE [14]
  Pre-emergence action against AMARE (herbicidal activity): 100%
AVEFA [16]
  Pre-emergence action against AVEFA (herbicidal activity): 80%
POLCO [22]
  Post-emergence action against POLCO: 90
ABUTH [15]
  Post-emergence action against ABUTH (herbicidal action in percent): 90%

## CCCn1nnnc1NC(=O)c1ccc(C(F)(F)F)c(C(=O)C(F)F)c1Cl [3-163]
SETVI
  SETVI (Table B8, pre-emergence herbicidal activity): 100%
VIOTR [3]
  Pre-emergence action against VIOTR: 100%
AMARE [4]
  Post-emergence action against AMARE (herbicidal action in percent): 100%
ECHCG [17]
  Post-emergence action against ECHCG (herbicidal action in percent): 80%
STEME [6]
  Post-emergence action against STEME: 100
ABUTH [7]
  Pre-emergence action against ABUTH (herbicidal activity): 100%
VIOTR [18]
  Post-emergence action against VIOTR: 80
PHBPU [8]
  Pre-emergence action against PHBPU: 80%
DIGSA
  Pre-emergence action against DIGSA (herbicidal activity): 100%
MATIN [10]
  Post-emergence action against MATIN (herbicidal action in percent): 90%
STEME [11]
  Pre-emergence action against STEME: 90%
MATIN [12]
  Pre-emergence action against MATIN: 100%
PHBPU [13]
  Post-emergence action against PHBPU: 90
AMARE [14]
  Pre-emergence action against AMARE (herbicidal activity): 100%
ABUTH [15]
  Post-emergence action against ABUTH (herbicidal action in percent): 80%
